{"source": "patent US10231979B2", "about": "“Modulation of inflammation using progesterone metabolites” (Indiana University Research and Technology Corporation, priority 2015, dated 2019)", "key": {"[1]": {"test_system": "primary uterine smooth muscle cells (UtSMC)", "test": "IL-6 production in UtSMC stimulated with LPS", "format": "cell-based", "settings": "UtSMC pre-treated, then LPS", "experimental": "In this Example, the effect of progesterone metabolites 16αOHP and 6β-OHP on inflammation in primary uterine smooth muscle cells (UtSMC) was analyzed.\nUtSMC were cultured in the presence of DMSO and one of the following: (1) progesterone; (2) […]; (3) 6β-OHP; and (4) 16αOHP. Lipopolysaccharide (LPS) was then added to the culture to stimulate an immune inflammatory reaction. Experiments were performed in triplicate."}, "[2]": {"test_system": "primary uterine smooth muscle cells (UtSMC)", "test": "IL-6 production in UtSMC stimulated with TNF-α", "format": "cell-based", "description": "FIGS. 5A & 5B are graphs depicting the effect of progesterone metabolites 16αOHP and 6β-OHP on inflammation in primary uterine smooth muscle cells (UtSMC)."}, "[3]": {"test_system": "CYP3A"}, "[4]": {"test_system": "THP-1 monocytes", "test": "IL-6 production in THP-1 monocytes stimulated with LPS", "format": "cell-based", "settings": "THP-1 monocytes pretreated, then LPS; versus positive control", "experimental": "FIG. 9 is a graph depicting the effect of progesterone and progesterone metabolites (16αOHP and 6β-OHP) on inflammation in THP-1 monocytes stimulated with LPS.\nIn this Example, the effect of progesterone and progesterone metabolites (16αOHP and 6β-OHP) on inflammation in THP-1 monocytes stimulated with LPS was analyzed."}, "[5]": {"test_system": "uterine horns from wild-type (WT) C57BL/6J female mice", "test": "Oxytocin-induced uterine contractility after progestin pretreatment, isolated uterine horns in tissue organ bath", "settings": "for EC50: oxytocin-induced dose-response (1-100 nmol/L oxytocin) after progestin pretreatment 10^-6 mol/L", "experimental": "(§1) FIGS. 2A & 2B are representative contraction tracings of uterine horns from wild-type (WT) C57BL/6J female mice. FIG. 2A: Uterine horns were isolated and suspended in a tissue organ bath at 0.5 g of tension. Once equilibrated, selected progestin treatments were added in successively increasing concentrations from 10^−9 to 10^−6 mol/L in 20-minute intervals to assess effect on spontaneous contractile activity (progesterone treatment, bottom panel). The contralateral horn from each mouse was treated with a matching ethanol vehicle (top panel). All contraction responses were measured and reported as the area under the contraction curve (AUC), normalized to the AUC of the spontaneous contraction pattern that preceded treatment. FIG. 2B: Treatment effect on oxytocin-induced contractility was assessed by exposing horns to selected progestin treatments (10^−6 mol/L), followed by increasing doses of oxytocin (Oxt) (1, 10, 50, and 100 nmol/L) in 10-minute intervals (bottom panel). The contralateral horn from each mouse was treated with a matching ethanol vehicle (top panel). Contraction responses were measured and reported as described above.\n(§2) All progestins were solubilized in ethanol and then diluted in phosphate-buffered saline to the desired molar concentration. […] The concentration of ethanol decreased parallel to the progestin dose in order to minimize the effect of the solvent on uterine contractility.\n(§3) Virgin nonpregnant wild-type C57BL/6J female mice (Jackson Labs, Bar Harbor, Me.) were obtained at 10 to 12 weeks of age and fed a standard diet. Mice were euthanized by an IACUC-approved protocol, and each of the 2 uterine horns were removed. A 1 cm×0.5 cm segment of the uterine horn was suspended using 4-0 silk suture between a stainless steel wire hook connected to a Radnoti force displacement transducer (Radnoti LLC, Monrovia, Calif.) and a glass hook inside an organ bath that served as an anchor. The bath was filled with modified Krebs buffer (118 mmol/L NaCl, […], 1.2 mmol/L MgSO4, 1.2 mmol/L KH2PO4, 2.5 mmol/L CaCl2, 25 mmol/L NaHCO3, and 11 mmol/L glucose, pH 7.4), maintained at 37° C., and constantly bubbled with a premixed gas consisting of 20% O2, 5% CO2, and balance N2. Uterine horns were equilibrated at 0.5 g of tension for approximately 30 minutes until a spontaneous contraction pattern was established.\nTo determine the nongenomic effect of progestin treatments on oxytocin-induced uterine contractility, the uterine horns were pretreated with a single progestin at 10^−6 mol/L for 10 minutes after a spontaneous contractile pattern was established. The contralateral horn from the same mouse was treated with ethanol vehicle at a matching concentration. The uterine horns were subsequently exposed to increasing concentrations of oxytocin (1, 10, 50, and 100 nmol/L) in 10-minute intervals. At the end of the oxytocin treatments, the tissue was washed and then exposed to KCl (60 mmol/L) to elicit a tetanic response and confirm tissue viability.\nUterine contraction responses were recorded using LabChart Pro (ADInstruments, Colorado Springs, Colo.) software as the force generated with time (g×min). Baseline uterine contractility was calculated as the area under the curve (AUC) for a 10-minute period of spontaneous contractions. The AUC of the uterine contractile response to each treatment (progestin or oxytocin) was determined and expressed as a percentage of the baseline AUC observed during spontaneous contraction. […] To account for repeated measurements for individual muscle strips at increasing treatment doses, a repeated measures 2-way analysis of variance model was used to compare the dose-response curves. Each dose-response curve was fit by nonlinear regression and compared using an extra sum of squares F test. The mean max-fit response was compared between each progestin and vehicle control to determine maximum treatment efficacy. […]"}, "[6]": {"test_system": "uterine horns from wild-type (WT) C57BL/6J female mice", "test": "Spontaneous uterine contractility, isolated uterine horns in tissue organ bath", "settings": "for IC50: spontaneous, dose-response 10^-9 to 10^-6 mol/L", "experimental": "as §1, §2, §3\nA total of 60 mice were utilized to assess the effect of the selected treatments on uterine contractility, 30 in the spontaneous contraction group and 30 in the oxytocin-induced group. Six mice were in each progestin treatment group during both spontaneous and oxytocin-induced contractility arms of the study. To determine the nongenomic (acute) effect of the progestin treatments on spontaneous uterine contractility, a segment of uterine horn from each mouse was exposed to a single progestin (progesterone, 17-OHPC, 2α-OHP, 6β-OHP, or 16αOHP), while a segment of the contralateral horn was exposed to a matching dose of ethanol vehicle. After a spontaneous contraction pattern was achieved, the progestin treatment was added to the tissue organ bath in successively increasing concentrations from 10^−9 to 10^−6 mol/L in 20-minute intervals. At the end of the treatments, the tissue was washed in modified Krebs buffer and then exposed to KCl (60 mmol/L) to elicit a tetanic response and confirm tissue viability.\nUterine contraction responses were recorded using LabChart Pro (ADInstruments, Colorado Springs, Colo.) software as the force generated with time (g×min). Baseline uterine contractility was calculated as the area under the curve (AUC) for a 10-minute period of spontaneous contractions. The AUC of the uterine contractile response to each treatment (progestin or oxytocin) was determined and expressed as a percentage of the baseline AUC observed during spontaneous contraction. […]"}, "[7]": {"test_system": "THP-1 monocyte cells", "test": "Flow cytometry of monocyte-derived macrophage population (PMA differentiation)", "format": "cell-based", "settings": "THP-1 pre-treated 24 hours, then PMA", "experimental": "FIGS. 6A-6C depict flow cytometry of a monocyte-derived macrophage population pre-treated with progesterone metabolites. THP-1 monocyte cells were pre-treated with progesterone metabolites 16αOHP and 6β-OHP for 24 hours, then stimulated to differentiate to macrophages by exposure to PMA.\nTHP-1 monocyte cells were pre-treated with progesterone metabolites 16αOHP and 6β-OHP for 24 hours, then stimulated to differentiate to macrophages by exposure to phorbol 12-myristate 13-acetate (PMA)."}, "[8]": {"test_system": "CYP3A", "test": "CYP3A production of 16α-OHP and 6β-OHP in human liver microsomes (HLMs)", "settings": "p<0.01"}, "[9]": {"settings": "maximal oxytocin dose (100 nmol/L)"}, "[10]": {"settings": "oxytocin-induced, progestin pretreatment 10^-6 mol/L, maximal oxytocin dose (100 nmol/L)"}}, "note": "Read-outs that look alike come from different tables or passages of the source.", "data": [{"smiles": "CC(=O)[C@H]1CC[C@H]2[C@@H]3C[C@@H](O)C4=CC(=O)CC[C@]4(C)[C@H]3CC[C@]12C", "note": "[6β-OHP, 4-pregnen-6β-ol-3,20-dione]", "values": [{"measurement": "IL-6", "setting": "[1]; LPS positive control 121.7 pg/mL", "value": 125.4, "unit": "pg/mL"}, {"measurement": "IL-6, % of positive control", "setting": "[1]; relative to DMSO+LPS positive control", "value": 102, "unit": "%"}, {"measurement": "IL-6 production (in words)", "setting": "[2]", "value": "decreased IL-6 production"}, {"measurement": "Production of metabolite in human liver microsomes (in words)", "setting": "[3]", "value": "favored"}, {"measurement": "Inflammatory response (IL-6 production) (in words)", "setting": "[4]", "value": "significantly decreased IL-6 production"}, {"measurement": "Effect on oxytocin-induced uterine contractility (in words)", "setting": "[5]", "value": "increase"}, {"measurement": "Oxytocin-induced contractile force compared to vehicle control (in words)", "setting": "[5]; [9]", "value": "no differences"}, {"measurement": "Oxytocin-induced contraction frequency compared to control (in words)", "setting": "[5]; [9]", "value": "decreased significantly"}, {"measurement": "EC50", "setting": "[5]; read-out: Contractile Force EC50", "value": 20.9, "unit": "nM"}, {"measurement": "EC50", "setting": "[5]; read-out: Contractile Frequency EC50", "value": 12.8, "unit": "nM"}, {"measurement": "Contractile Force (% of baseline), Drug", "setting": "[5]; [10]", "value": "267.6% of baseline"}, {"measurement": "Contractile Frequency/10 min (% of baseline), Drug", "setting": "[5]; [10]", "value": "196.1% of baseline"}, {"measurement": "Contractile Frequency/10 min (% of baseline), Drug", "setting": "[5]; oxytocin-induced, progestin pretreatment 10^-6 mol/L, maximal oxytocin dose (100 nmol/L), listed as 6β-hydroxyprogesterone", "value": "196 % of baseline"}, {"measurement": "Spontaneous contractile force compared with the vehicle control (in words)", "setting": "[6]; maximal treatment dose", "value": "No significant difference"}, {"measurement": "Spontaneous uterine contraction frequency compared to vehicle control (in words)", "setting": "[6]; maximal treatment dose", "value": "not significantly decreased"}, {"measurement": "Contractile Frequency/10 min (% of baseline), Drug", "setting": "[6]; spontaneous contractility, maximal treatment dose", "value": "46.2% of baseline"}, {"measurement": "Contractile Force (% of baseline), Drug", "setting": "[6]; spontaneous contractility, maximal treatment dose, AUC as % of baseline AUC", "value": "45% of baseline"}, {"measurement": "IC50", "setting": "[6]; read-out: Contractile Force IC50", "value": 0.48, "unit": "nM"}, {"measurement": "IC50", "setting": "[6]; read-out: Contractile Frequency IC50", "value": 4.1, "unit": "nM"}, {"measurement": "Macrophage population/phenotype compared to DMSO treated control (in words)", "setting": "[7]", "value": "decrease in the macrophage population/phenotype"}, {"measurement": "Macrophages, % of the total population", "setting": "[7]; DMSO control 77%", "value": 52, "unit": "%"}]}, {"smiles": "CC(=O)N1CCN(c2ccc(OCC3COC(Cn4ccnc4)(c4ccc(Cl)cc4Cl)O3)cc2)CC1", "note": "(stereo not shown) [ketoconazole]", "values": [{"measurement": "Effect on CYP3A production of 16α-OHP and 6β-OHP", "setting": "[8]", "value": "inhibited"}]}]}
